{"source": "patent US20250201406A1", "about": "“METHOD AND BIOMARKER FOR PREDICTING SEVERITY OF COVID-19 DISEASE AND METHOD FOR THERAPEUTIC INTERVENTION IN COVID-19 DISEASE” (priority 2022, published 2025)", "key": {"[1]": {"system": "SARS-CoV-2 specific CD8^+Tc", "details": "through normalizing cellular metabolism; cited from earlier work"}, "[2]": {"system": "CD8^+TM", "assay": "SARS-CoV-2 specific peptide activation of COVID(+) PBMCs in presence or absence of Mdivi-1, flow cytometry of CD8+TM", "assay_type": "cell-based, human", "details": "20 μM Mdivi-1 vs vehicle, 96 hr, CD8a SARS-CoV-2 megapool peptide, PBMCs from COVID-19(+) patients", "procedure": "(§1) PBMCs (0.5×10^6 cells) were first stained with live/dead in PBS for 15 min, washed with Flow Cytometry Staining Buffer (FACS Buffer), and stained with surface markers in ice-cold FACS buffer at 4° C. for 30 min. PBMCs were then washed twice with FACS buffer and stained with secondary antibodies for 15 minutes. Samples were fixed and permeabilized using Fixation/Permeabilization buffer (20 min) at room temperature and washed with ice-cold FACS buffer. PBMCs were then stained with intracellular antibodies at 37° C. for 45 min in permeabilization buffer. Samples were washed once with permeabilization buffer before being resuspended in FACS buffer for flow cytometric analysis using Cytoflex system. Data was then analyzed by Flowjo™v10.\n(§2) PBMCs (5×10^5) were stimulated with […] of CD8a SARS-CoV-2 megapool peptide^92 in the presence of absence of 20 μM Mdivi-1 at 37° C., 5% C02 for 96 hr.\n(§3) FIGS. 15A-F. Mitophagy inhibition restores CD8^+Tc and SARS-CoV-2 specific CD8^+Tc function. PBMCs from 5 COVID-19(+) patients were activated with SARS-CoV-2 megapool CD8a peptide (see Methods) in the presence or absence of MDIVI-1 (20 μM). One sample was excluded from analysis due to critically low CD8^+Tc count. […] Two-tailed student's T-test was used. *p<0.05, **p<0.01, and ***p<0.001."}, "[3]": {"system": "CD8^+Tc", "assay": "SARS-CoV-2 specific peptide activation of COVID(+) PBMCs in presence or absence of Mdivi-1, flow cytometry of CD8+Tc", "assay_type": "cell-based, human", "details": "20 μM Mdivi-1 vs vehicle, 96 hr, CD8a SARS-CoV-2 megapool peptide, PBMCs from COVID-19(+) patients", "procedure": "as §1, §2, §3"}, "[4]": {"system": "SARS-CoV-2", "details": "virally infected cells; cited from earlier work"}, "[5]": {"system": "COVID-19", "details": "COVID-19 patients, stage-2 clinical trial; cited from earlier work"}, "[6]": {"system": "COVID-19", "details": "randomized clinical trials; cited from earlier work"}}, "data": [{"compound": "cyclophilin A: found to restore SARS-CoV-2 specific CD8+Tc function through normalizing cellular metabolism", "values": [{"measurement": "SARS-CoV-2 specific CD8^+Tc function", "setting": "[1]", "value": "restore"}]}, {"compound": "COc1cc(-n2c(=S)[nH]c3ccccc3c2=O)c(Cl)cc1Cl", "note": "[Mdivi-1]", "values": [{"measurement": "Glut-1 expression in CD8^+TM", "setting": "[2]", "value": "reduced"}, {"measurement": "CD8^+TM proliferation (Ki-67)", "setting": "[2]; FIG. 15E", "value": "augmented"}, {"measurement": "generation of SARS-CoV-2-specific CD137^+ cells amongst CD8+Tc", "setting": "[3]; FIG. 15B", "value": "improved"}, {"measurement": "proliferation (Ki-67^+ cells) of CD8+Tc", "setting": "[3]; FIG. 15C", "value": "induced"}, {"measurement": "IFNy-secreting capacity of CD8^+Tc", "setting": "[3]; FIG. 15D", "value": "induced"}, {"measurement": "SARS-CoV-2 replication", "setting": "[4]", "value": "effectively reduce"}]}, {"compound": "O=CC[C@@H](O)[C@H](O)[C@H](O)CO", "note": "[2-DG, 2-deoxy-glucose]", "values": [{"measurement": "patient outcomes", "setting": "[5]", "value": "successful in improving patient outcomes"}]}, {"compound": "CCN(CCO)CCCC(C)Nc1ccnc2cc(Cl)ccc12", "note": "(stereo not drawn) [Hydroxychloroquine]", "values": [{"measurement": "efficacy in COVID-19", "setting": "[6]", "value": "ineffective"}]}]}
